Data as given in patent US10266537B2, “3-acetylenyl-pyrazole-pyrimidine derivative, and preparation method therefor and uses thereof” (Si Chuan University, priority 2015, dated 2019).

What was measured:
Experiment in all cases: Kinase inhibition assay (KinaseProfiler, 33P-ATP)
Pim-3(h) = Pim-3(h) (Homo sapiens (Human), UniProt Q86V86); assay type: biochemical; details: read-out: The percentage of the remaining active protein
Rsk1(r) = Rsk1(r) (Rattus norvegicus (Rat), UniProt Q63531); assay type: biochemical; details: read-out: The percentage of the remaining active protein
PKG1β(h) = PKG1β(h) (Homo sapiens (Human), UniProt Q13976); assay type: biochemical; details: read-out: The percentage of the remaining active protein
Rse = Rse (Homo sapiens (Human), UniProt Q06418); assay type: biochemical; details: Rse(h), read-out: The percentage of the remaining active protein
CaMKIIδ(h) = CaMKIIδ(h) (Homo sapiens (Human), UniProt Q13557); assay type: biochemical; details: read-out: The percentage of the remaining active protein
NEK11(h) = NEK11(h) (Homo sapiens (Human), UniProt Q8NG66); assay type: biochemical; details: read-out: The percentage of the remaining active protein
Chain of NEK11(h) (Q8NG66 whole entry): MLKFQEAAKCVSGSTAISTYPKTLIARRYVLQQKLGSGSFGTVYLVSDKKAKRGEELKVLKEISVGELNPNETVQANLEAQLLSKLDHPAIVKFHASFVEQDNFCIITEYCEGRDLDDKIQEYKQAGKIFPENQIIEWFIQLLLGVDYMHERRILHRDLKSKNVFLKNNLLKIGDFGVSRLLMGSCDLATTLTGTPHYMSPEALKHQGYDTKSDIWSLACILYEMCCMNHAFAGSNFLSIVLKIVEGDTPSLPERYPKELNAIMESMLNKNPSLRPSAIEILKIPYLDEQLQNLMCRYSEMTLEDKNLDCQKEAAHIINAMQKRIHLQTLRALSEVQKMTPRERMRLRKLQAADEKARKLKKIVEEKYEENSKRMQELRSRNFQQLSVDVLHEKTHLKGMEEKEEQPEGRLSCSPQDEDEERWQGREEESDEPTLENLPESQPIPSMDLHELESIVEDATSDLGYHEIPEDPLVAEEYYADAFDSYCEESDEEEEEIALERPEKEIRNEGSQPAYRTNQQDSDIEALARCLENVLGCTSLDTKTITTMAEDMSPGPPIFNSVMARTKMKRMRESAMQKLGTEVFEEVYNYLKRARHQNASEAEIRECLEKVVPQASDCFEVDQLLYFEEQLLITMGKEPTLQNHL

EphA3 = EphA3 (Homo sapiens (Human), UniProt P29320); assay type: biochemical; details: EphA3(h), read-out: The percentage of the remaining active protein
PKCι(h) = PKCι(h) (Homo sapiens (Human), UniProt P41743); assay type: biochemical; details: read-out: The percentage of the remaining active protein
Chain of PKCι(h) (P41743 whole entry): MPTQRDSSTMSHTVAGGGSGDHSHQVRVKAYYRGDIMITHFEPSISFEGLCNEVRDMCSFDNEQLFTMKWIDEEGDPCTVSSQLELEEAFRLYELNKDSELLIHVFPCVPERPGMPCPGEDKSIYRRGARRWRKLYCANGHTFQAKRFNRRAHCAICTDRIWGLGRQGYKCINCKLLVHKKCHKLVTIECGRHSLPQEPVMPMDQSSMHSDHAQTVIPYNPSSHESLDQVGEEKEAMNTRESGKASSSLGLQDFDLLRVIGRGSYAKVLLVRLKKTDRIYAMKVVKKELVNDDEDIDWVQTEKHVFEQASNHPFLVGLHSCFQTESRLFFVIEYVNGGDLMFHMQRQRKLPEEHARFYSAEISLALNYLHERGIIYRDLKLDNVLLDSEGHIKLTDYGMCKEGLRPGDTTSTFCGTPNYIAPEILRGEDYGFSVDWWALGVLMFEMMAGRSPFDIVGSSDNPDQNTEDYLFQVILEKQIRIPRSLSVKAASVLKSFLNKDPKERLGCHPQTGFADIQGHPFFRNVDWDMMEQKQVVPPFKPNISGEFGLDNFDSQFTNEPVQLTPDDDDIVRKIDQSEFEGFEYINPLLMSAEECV

Met(Y1248H)(h) = Met(Y1248H)(h) (Homo sapiens (Human), UniProt P08581, Y1248H); assay type: biochemical; details: read-out: The percentage of the remaining active protein
WNK3(h) = WNK3(h) (Homo sapiens (Human), UniProt Q9BYP7); assay type: biochemical; details: read-out: The percentage of the remaining active protein
PKBγ(h) = PKBγ(h) (Homo sapiens (Human), UniProt Q9Y243); assay type: biochemical; details: read-out: The percentage of the remaining active protein
[1] = target: PI3 Kinase (p110a(H1047R)/p85a)(h) (Homo sapiens (Human), UniProt P42336, H1047R); assay type: biochemical; details: read-out: The percentage of the remaining active protein
MST2(h) = MST2(h) (Homo sapiens (Human), UniProt Q13188); assay type: biochemical; details: read-out: The percentage of the remaining active protein
Arg = Arg (Homo sapiens, UniProt P42684)
Chain of Arg (P42684 2-1182 limits assumed): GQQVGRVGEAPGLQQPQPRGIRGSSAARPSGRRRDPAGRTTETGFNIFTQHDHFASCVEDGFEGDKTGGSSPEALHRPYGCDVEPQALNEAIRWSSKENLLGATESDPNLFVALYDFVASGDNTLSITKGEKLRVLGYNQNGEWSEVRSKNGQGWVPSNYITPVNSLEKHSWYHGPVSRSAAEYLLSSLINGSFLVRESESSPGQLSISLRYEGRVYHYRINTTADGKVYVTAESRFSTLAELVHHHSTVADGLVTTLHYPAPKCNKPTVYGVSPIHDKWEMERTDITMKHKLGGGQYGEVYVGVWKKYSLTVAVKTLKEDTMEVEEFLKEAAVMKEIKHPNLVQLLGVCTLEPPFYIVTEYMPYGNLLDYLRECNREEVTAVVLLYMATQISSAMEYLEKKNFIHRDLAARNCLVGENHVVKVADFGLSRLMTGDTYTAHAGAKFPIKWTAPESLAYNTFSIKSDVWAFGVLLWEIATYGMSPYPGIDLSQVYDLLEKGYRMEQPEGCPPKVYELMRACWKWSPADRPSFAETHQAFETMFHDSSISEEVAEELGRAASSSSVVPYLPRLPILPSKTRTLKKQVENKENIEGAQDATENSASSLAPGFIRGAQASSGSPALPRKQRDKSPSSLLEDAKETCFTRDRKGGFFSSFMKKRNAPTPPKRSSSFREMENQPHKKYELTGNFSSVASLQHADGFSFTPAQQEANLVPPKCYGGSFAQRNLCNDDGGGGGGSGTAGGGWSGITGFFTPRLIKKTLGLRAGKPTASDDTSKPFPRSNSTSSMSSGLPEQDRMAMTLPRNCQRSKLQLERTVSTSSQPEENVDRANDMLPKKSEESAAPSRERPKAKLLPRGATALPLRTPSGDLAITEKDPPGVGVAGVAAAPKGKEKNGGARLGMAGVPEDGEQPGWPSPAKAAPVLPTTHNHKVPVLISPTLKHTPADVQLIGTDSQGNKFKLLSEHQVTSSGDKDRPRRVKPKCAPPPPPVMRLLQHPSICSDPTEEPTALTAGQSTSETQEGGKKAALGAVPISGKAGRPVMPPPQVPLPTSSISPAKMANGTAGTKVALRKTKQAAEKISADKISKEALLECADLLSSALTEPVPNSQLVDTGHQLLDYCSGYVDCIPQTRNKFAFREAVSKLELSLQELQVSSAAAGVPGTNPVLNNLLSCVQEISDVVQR

SAPK2a(T106M)(h) = SAPK2a(T106M)(h) (Homo sapiens (Human), UniProt Q16539, T106M); assay type: biochemical; details: read-out: The percentage of the remaining active protein
MKK4(m) = MKK4(m) (Mus musculus (Mouse), UniProt P47809); assay type: biochemical; details: read-out: The percentage of the remaining active protein
MKK6(h) = MKK6(h) (Homo sapiens (Human), UniProt P52564); assay type: biochemical; details: read-out: The percentage of the remaining active protein
IGF-1R(h), activated = IGF-1R(h), activated (Homo sapiens (Human), UniProt P08069); assay type: biochemical; details: read-out: The percentage of the remaining active protein
Chain of IGF-1R(h), activated (P08069 959-1367 limits assumed): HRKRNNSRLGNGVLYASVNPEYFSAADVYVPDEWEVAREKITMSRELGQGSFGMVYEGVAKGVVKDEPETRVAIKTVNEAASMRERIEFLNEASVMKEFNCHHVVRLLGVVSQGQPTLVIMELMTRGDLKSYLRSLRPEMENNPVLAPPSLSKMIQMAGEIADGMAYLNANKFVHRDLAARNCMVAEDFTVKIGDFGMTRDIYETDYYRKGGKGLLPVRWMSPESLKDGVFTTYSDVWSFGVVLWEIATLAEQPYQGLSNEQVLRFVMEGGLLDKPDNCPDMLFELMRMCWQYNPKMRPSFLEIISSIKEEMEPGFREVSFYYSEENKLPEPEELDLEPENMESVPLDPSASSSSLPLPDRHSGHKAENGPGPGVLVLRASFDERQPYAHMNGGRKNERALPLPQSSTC

Plk1(h) = Plk1(h) (Homo sapiens (Human), UniProt P53350); assay type: biochemical; details: read-out: The percentage of the remaining active protein
Aurora-C(h) = Aurora-C(h) (Homo sapiens (Human), UniProt Q9UQB9); assay type: biochemical; details: read-out: The percentage of the remaining active protein
EphA4 = EphA4 (Homo sapiens (Human), UniProt P54764); assay type: biochemical; details: EphA4(h), read-out: The percentage of the remaining active protein
MSK1(h) = MSK1(h) (Homo sapiens (Human), UniProt O75582); assay type: biochemical; details: read-out: The percentage of the remaining active protein
Rsk1(h) = Rsk1(h) (Homo sapiens (Human), UniProt Q15418); assay type: biochemical; details: read-out: The percentage of the remaining active protein
PKCη(h) = PKCη(h) (Homo sapiens (Human), UniProt P24723); assay type: biochemical; details: read-out: The percentage of the remaining active protein
Pyk2 = Pyk2 (Homo sapiens (Human), UniProt Q14289); assay type: biochemical; details: Pyk2(h), read-out: The percentage of the remaining active protein
MAPKAP-K2(h) = MAPKAP-K2(h) (Homo sapiens (Human), UniProt P49137); assay type: biochemical; details: read-out: The percentage of the remaining active protein
Pim-2(h) = Pim-2(h) (Homo sapiens (Human), UniProt Q9P1W9); assay type: biochemical; details: read-out: The percentage of the remaining active protein
PhKγ2(h) = PhKγ2(h) (Homo sapiens (Human), UniProt P15735); assay type: biochemical; details: read-out: The percentage of the remaining active protein
Chain of PhKγ2(h) (P15735 whole entry): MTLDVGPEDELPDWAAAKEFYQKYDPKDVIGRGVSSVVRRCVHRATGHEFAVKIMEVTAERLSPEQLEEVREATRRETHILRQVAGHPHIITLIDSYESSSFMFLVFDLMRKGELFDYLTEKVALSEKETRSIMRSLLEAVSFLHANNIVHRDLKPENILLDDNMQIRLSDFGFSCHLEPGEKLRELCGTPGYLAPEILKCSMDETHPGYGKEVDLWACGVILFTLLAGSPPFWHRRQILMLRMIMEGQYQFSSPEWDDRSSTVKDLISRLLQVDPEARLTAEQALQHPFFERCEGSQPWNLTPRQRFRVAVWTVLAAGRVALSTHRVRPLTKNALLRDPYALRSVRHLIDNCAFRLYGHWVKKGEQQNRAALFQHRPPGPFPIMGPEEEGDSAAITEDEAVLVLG

PIP5K1g(h) = PIP5K1g(h) (Homo sapiens (Human), UniProt O60331); assay type: biochemical; details: read-out: The percentage of the remaining active protein
Chain of PIP5K1g(h) (O60331 whole entry): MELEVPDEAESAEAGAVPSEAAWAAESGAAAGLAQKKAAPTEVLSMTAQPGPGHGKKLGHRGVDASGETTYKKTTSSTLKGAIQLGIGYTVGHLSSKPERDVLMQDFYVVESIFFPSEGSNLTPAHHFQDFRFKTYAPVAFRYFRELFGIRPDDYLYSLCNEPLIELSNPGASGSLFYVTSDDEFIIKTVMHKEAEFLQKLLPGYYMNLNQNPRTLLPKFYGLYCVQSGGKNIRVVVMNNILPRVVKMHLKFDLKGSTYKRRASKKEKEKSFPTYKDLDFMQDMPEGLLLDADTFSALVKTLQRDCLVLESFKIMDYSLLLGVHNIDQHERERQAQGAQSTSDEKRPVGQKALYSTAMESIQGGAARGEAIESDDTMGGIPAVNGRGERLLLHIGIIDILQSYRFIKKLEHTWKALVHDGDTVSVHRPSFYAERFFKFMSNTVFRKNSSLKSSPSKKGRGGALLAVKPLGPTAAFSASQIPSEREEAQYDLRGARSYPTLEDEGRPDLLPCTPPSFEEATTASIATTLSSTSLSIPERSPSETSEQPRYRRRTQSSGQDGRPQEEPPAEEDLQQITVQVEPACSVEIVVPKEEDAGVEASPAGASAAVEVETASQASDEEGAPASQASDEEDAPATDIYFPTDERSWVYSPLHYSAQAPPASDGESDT

LRRK2(h) = LRRK2(h) (Homo sapiens (Human), UniProt Q5S007); assay type: biochemical; details: read-out: The percentage of the remaining active protein
GCK(h) = GCK(h) (Homo sapiens (Human), UniProt Q12851); assay type: biochemical; details: read-out: The percentage of the remaining active protein
MLCK(h) = assay type: biochemical, human; details: 10 μM
CLK2(h) = CLK2(h) (Homo sapiens (Human), UniProt P49760); assay type: biochemical; details: read-out: The percentage of the remaining active protein
Txk = Txk (Homo sapiens (Human), UniProt P42681); assay type: biochemical; details: Txk(h), read-out: The percentage of the remaining active protein
PKCε(h) = PKCε(h) (Homo sapiens (Human), UniProt Q02156); assay type: biochemical; details: read-out: The percentage of the remaining active protein
Chain of PKCε(h) (Q02156 whole entry): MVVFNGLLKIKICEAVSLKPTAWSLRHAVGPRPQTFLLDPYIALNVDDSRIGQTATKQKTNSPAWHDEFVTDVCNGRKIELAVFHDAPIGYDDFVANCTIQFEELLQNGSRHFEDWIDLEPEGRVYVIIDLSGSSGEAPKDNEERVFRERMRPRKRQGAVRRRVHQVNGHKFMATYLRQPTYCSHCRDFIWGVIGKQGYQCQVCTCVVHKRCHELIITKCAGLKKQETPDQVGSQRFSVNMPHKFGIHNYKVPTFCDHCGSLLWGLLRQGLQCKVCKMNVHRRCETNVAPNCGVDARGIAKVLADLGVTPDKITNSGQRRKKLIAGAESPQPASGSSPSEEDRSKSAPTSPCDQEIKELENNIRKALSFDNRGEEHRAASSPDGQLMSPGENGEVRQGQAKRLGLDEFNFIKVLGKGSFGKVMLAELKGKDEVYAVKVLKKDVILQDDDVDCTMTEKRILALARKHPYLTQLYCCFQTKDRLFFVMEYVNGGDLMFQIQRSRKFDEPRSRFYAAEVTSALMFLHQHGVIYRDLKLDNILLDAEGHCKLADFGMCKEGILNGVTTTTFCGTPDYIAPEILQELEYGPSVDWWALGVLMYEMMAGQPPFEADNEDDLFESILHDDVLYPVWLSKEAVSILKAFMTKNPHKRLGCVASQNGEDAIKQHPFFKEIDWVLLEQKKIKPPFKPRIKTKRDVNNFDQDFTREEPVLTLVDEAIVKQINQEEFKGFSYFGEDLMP

`Cc1ccc(NC(=O)c2ccc(C)c(C(F)(F)F)c2)cc1C#Cc1nn([C@H]2CC[C@H](O)CC2)c2ncnc(N)c12` [Compound 93] was tested, and the remaining activity at 10 µM (Pim-3(h)) was 99%, the remaining activity at 10 µM (Rsk1(r)) was 20% and the remaining activity at 10 µM (PKG1β(h)) was 115%. The remaining activity at 10 µM (Rse) was 2%, the remaining activity at 10 µM (CaMKIIδ(h)) was 89% and the remaining activity at 10 µM (NEK11(h)) was 50%. For the same compound, the remaining activity at 10 µM (EphA3) was 3%, the remaining activity at 10 µM (PKCι(h)) was 91% and the remaining activity at 10 µM (Met(Y1248H)(h)) was 123%. For the same compound, the remaining activity at 10 µM (WNK3(h)) was 39%, the remaining activity at 10 µM (PKBγ(h)) was 94% and the remaining activity at 10 µM [1] was 89%. It also gave a remaining activity at 10 µM (MST2(h)) of 63%, an IC50 (Arg; Arg, ATP at Km) of 4 nM and a remaining activity at 10 µM (Arg; read-out: The percentage of the remaining active protein) of 0%. The remaining activity at 10 µM (SAPK2a(T106M)(h)) was 88%, the remaining activity at 10 µM (MKK4(m)) was 49% and the remaining activity at 10 µM (MKK6(h)) was 43%. For the same compound, the remaining activity at 10 µM (IGF-1R(h), activated) was 91%, the remaining activity at 10 µM (Plk1(h)) was 92% and the remaining activity at 10 µM (Aurora-C(h)) was 101%. For the same compound, the remaining activity at 10 µM (EphA4) was -2%, the remaining activity at 10 µM (MSK1(h)) was 95% and the remaining activity at 10 µM (Rsk1(h)) was 11%. It also gave a remaining activity at 10 µM (PKCη(h)) of 72%, a remaining activity at 10 µM (Pyk2) of 5% and a remaining activity at 10 µM (MAPKAP-K2(h)) of 104%. It also gave a remaining activity at 10 µM (Pim-2(h)) of 112%, a remaining activity at 10 µM (PhKγ2(h)) of 113% and a remaining activity at 10 µM (PIP5K1g(h)) of 98%. The remaining activity at 10 µM (LRRK2(h)) was 15%, the remaining activity at 10 µM (GCK(h)) was 49% and the “The percentage of the remaining active protein” value (MLCK(h)) was 62%. It also gave a remaining activity at 10 µM (CLK2(h)) of 47%, a remaining activity at 10 µM (Txk) of 1% and a remaining activity at 10 µM (PKCε(h)) of 117%.
